Series [1] addresses 5-HT2A receptor (Homo sapiens, UniProt P28223). In words: Calcium ion mobility in cells stably expressing 5-HT2A receptors (Flp-In-CHO-5HT2A, FLIPR). The format is cell-based. Details: expressed in transfected cells. The settings on record: Flp-In-CHO-5HT2A stable pool, 5HT stimulation.
Series [2] addresses T1, D3 receptor (Homo sapiens, UniProt P35462).
T1 construct: expressed in transfected cells
The series is described as follows: cAMP content in cells stably expressing D3 receptors (CHO-D3, forskolin, HTRF). It counts as cell-based.

The nature of series [3]: Pharmacokinetic assay in Balb/c mice (plasma and brain tissue). The format is in vivo. To be noted: male, mouse, po, p.o. 5 mg/kg; for AUC(0-t): read-out: Area under curve AUC0-t; for Tmax: read-out: Peak time tmax; for Cmax: read-out: Plasma concentration Cmax; for AUC(0-inf): read-out: Area under curve AUC0-∞; for MRT: read-out: Average residence time MRT; for half-life: read-out: Half life t1/2 (converted). The method, then: Balb/c mice were used as test animals. The pharmacokinetic behavior in mouse body (plasma and brain tissue) of the compounds of Examples of the present invention was studied at an oral administration dose of 5 mg/kg.
Compounds of the Examples of the present invention, prepared by the applicant.
Male Balb/c mice (12 mice per group), purchased from Shanghai Jiesijie Laboratory Animal Co., LTD, with Certificate No.: SCXK (Shanghai) 2013-0006 N0.311620400001794.
The test compound was dissolved in 0.5% CMC-Na (1% Tween80) by sonication to formulate a clear solution or homogeneous suspension.
After an overnight fast, male Balb/c mice (12 mice per group) were administered p.o. with the test compound at an administration dose of 5 mg/kg and an administration volume of 10 mL/kg.
0.2 mL of blood was taken from the heart of the mouse before administration and at 1, 2, 4, 8 and 24 hours after administration, and the mice were sacrificed with CO2. The samples were stored in EDTA-K2 tubes, and centrifuged for 6 minutes at 4°C, 6000 rpm to separate the plasma. The plasma samples were stored at -80°C. Whole brain tissue was taken out, weighed, placed in a 2 mL centrifuge tube, and stored at -80°C.
• 1) 160 µL of acetonitrile was added to 40 µL of the plasma sample for precipitation, and then the mixture was centrifuged for 5 to 20 minutes at 3500 × g. • 2) 90 µL of acetonitrile containing internal standard (100 ng/mL) was added to 30 µL of the plasma and brain homogenate sample for precipitation, and then the mixture was centrifuged for 8 minutes at 13000 rpm. • 3) 70 µL of water was added to 70 µL of the treated supernatant and mixed by vortex for 10 minutes. 20 µL of the supernatant was taken to analyze the concentration of the test compound by LC/MS/MS. LC/MS/MS analytical instrument: AB Sciex API 4000 Qtrap.
• Liquid chromatography condition: Shimadzu LC-20AD pump • Chromatographic column: Agilent ZORBAX XDB-C18 (50×2.1 mm, 3.5 µm); Mobile phase: Eluent A was 0.1% formic acid in water, and Eluent B was acetonitrile • Flow rate: 0.4 mL/min • Elution time: 0-4.0 minutes, the eluent is as follows:
The main parameters of pharmacokinetics were calculated by WinNonlin 6.1. Table 17: Experimental results of pharmacokinetic assay in mice

Read-outs that look alike come from different tables or passages of the source.

5-HT2A receptor, sequence (P28223 whole entry): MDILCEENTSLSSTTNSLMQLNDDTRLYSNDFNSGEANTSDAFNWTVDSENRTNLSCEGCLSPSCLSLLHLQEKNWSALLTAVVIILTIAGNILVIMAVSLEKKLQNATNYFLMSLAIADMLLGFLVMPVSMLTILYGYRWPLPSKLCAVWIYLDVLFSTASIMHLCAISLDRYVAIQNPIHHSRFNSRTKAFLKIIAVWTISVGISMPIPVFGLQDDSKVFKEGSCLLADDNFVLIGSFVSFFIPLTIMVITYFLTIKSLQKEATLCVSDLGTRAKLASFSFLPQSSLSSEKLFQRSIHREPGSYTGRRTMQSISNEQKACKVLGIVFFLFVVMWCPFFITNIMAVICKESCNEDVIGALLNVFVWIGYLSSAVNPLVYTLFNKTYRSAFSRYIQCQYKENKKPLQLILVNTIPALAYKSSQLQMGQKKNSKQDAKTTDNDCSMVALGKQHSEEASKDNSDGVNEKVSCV
T1 sequence (P35462 whole entry): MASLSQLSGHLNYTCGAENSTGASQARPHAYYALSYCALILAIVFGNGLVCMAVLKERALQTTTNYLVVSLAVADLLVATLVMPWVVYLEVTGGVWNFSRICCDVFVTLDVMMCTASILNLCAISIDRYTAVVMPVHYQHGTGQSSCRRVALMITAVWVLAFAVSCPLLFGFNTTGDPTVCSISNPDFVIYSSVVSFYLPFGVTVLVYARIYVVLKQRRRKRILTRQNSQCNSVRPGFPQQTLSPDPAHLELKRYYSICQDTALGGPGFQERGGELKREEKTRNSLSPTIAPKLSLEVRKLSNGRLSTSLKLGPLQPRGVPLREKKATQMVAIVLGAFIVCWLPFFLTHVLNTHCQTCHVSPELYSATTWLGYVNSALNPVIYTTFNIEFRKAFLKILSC

As usually defined, the IC50 is the point on the concentration scale where inhibition reaches its midpoint. For orientation: EC50 means the concentration that produces a half-maximal response. Read a low EC50 as higher potency in that assay. For orientation: Tmax means the time from dosing to the highest level. As usually defined, the MRT is the average time that molecules of a dose stay in the body. Consider `O=C(N[C@H]1C[C@H](CCN2CCN(c3cccc(Cl)c3Cl)CC2)C1)c1cccc2ncccc12` [Example 19A, N-(Trans-3-(2-(4-(2,3-dichlorophenyl)piperazin-1-yl)ethyl)cyclobutyl)quinoline-5-c arboxamide], for which the IC50 in series [1] came out at 7.67 nM. The EC50 in series [2] came to 1.6 nM. Also, in series [3] (Brain), the AUC(0-t) came to 1240 ng·h/mL, the Tmax came to 1 h and the Cmax came out at 372 ng/mL. Further, in series [3] (Plasma), the AUC(0-t) stood at 456 ng·h/mL, the AUC(0-inf) was 471 ng·h/mL, the MRT is 1.8 h and the half-life is 1.7 h. For the same compound, in series [3] (Plasma), the Tmax turned out to be 0.5 h and the Cmax came out at 349 ng/mL.

`O=C(N[C@H]1C[C@@H](CCN2CCN(c3cccc(Cl)c3Cl)CC2)C1)c1ncco1` [Example 12B, N-(Cis-3-(2-(4-(2,3-dichlorophenyl)piperazin-1-yl)ethyl)cyclobutyl)oxazole-2-carbo xamide]: the half-inhibitory concentration (IC50) in series [1] stood at 11.6 nM. In series [2], this compound had an EC50 of 0.7 nM. In series [3] (Brain), the AUC(0-t) turned out to be 5200 ng·h/mL, the Tmax was 1 h and the Cmax amounted to 1870 ng/mL. Also, in series [3] (Plasma), the AUC(0-t) worked out at 1620 ng·h/mL, the AUC(0-inf) was 1710 ng·h/mL, the MRT was 2.4 h and the half-life was 1.8 h. Besides, in series [3] (Plasma), the Tmax stood at 0.5 h and the Cmax was found to be 715 ng/mL.

As for `O=C(NC1CC(CCN2CCN(c3cccc(Cl)c3Cl)CC2)C1)c1ncco1` (stereo not shown) [Example 12, N-(3-(2-(4-(2,3-Dichlorophenyl)piperazin-1-yl)ethyl)cyclobutyl)oxazole-2-carboxamide], the IC50 in series [1] was 5.2 nM. This compound also returned an EC50 in series [2] of 1.7 nM. In series [3] (Brain), the AUC(0-t) came to 4830 ng·h/mL, the AUC(0-inf) is 4880 ng·h/mL, the Tmax came to 1 h and the Cmax is 1200 ng/mL. In addition, in series [3] (Plasma), the AUC(0-t) was 1040 ng·h/mL, the AUC(0-inf) came to 1230 ng·h/mL, the MRT stood at 3.9 h and the half-life was 2.8 h. Also, in series [3] (Plasma), the time of peak concentration (Tmax) came out at 0.5 h and the Cmax is 391 ng/mL.

For `O=C(N[C@H]1C[C@H](CCN2CCN(c3cccc(Cl)c3Cl)CC2)C1)c1nccs1` [Example 7A, N-(Trans-3-(2-(4-(2,3-dichlorophenyl)piperazin-1-yl)ethyl)cyclobutyl)thiazole-2-car boxamide], the IC50 in series [1] turned out to be 2.74 nM. The EC50 in series [2] amounted to 1 nM. In series [3] (Brain), the AUC(0-t) was 1350 ng·h/mL, the time to peak (Tmax) turned out to be 1 h and the Cmax is 179 ng/mL. Besides, in series [3] (Plasma), the AUC(0-t) was found to be 395 ng·h/mL, the AUC(0-inf) amounted to 501 ng·h/mL, the MRT worked out at 5.3 h and the half-life was 3.7 h. Further, in series [3] (Plasma), the Tmax amounted to 1 h and the Cmax was 102 ng/mL.

In the case of `O=C(N[C@H]1C[C@H](CCN2CCN(c3cccc(Cl)c3Cl)CC2)C1)C1(O)CC1` [Example 6A, N-(Trans-3-(2-(4-(2,3-dichlorophenyl)piperazin-1-yl)ethyl)cyclobutyl)-1-hydroxycy clopropane-1-carboxamide], the IC50 in series [1] was determined as 3.07 nM. Also, the response in series [2] was half-maximal at 0.6 nM (EC50). For the same compound, in series [3] (Brain), the AUC(0-t) was 1080 ng·h/mL, the time of peak concentration (Tmax) worked out at 1 h and the Cmax worked out at 321 ng/mL. In series [3] (Plasma), the AUC(0-t) turned out to be 1420 ng·h/mL, the AUC(0-inf) is 1440 ng·h/mL, the MRT came to 1.8 h and the half-life was 1.3 h. In series [3] (Plasma), the Tmax was 0.5 h and the Cmax came out at 745 ng/mL.

Regarding `O=C(N[C@H]1C[C@H](CCN2CCN(c3cccc(Cl)c3Cl)CC2)C1)c1ncco1` [Example 12A, N-(Trans-3-(2-(4-(2,3-dichlorophenyl)piperazin-1-yl)ethyl)cyclobutyl)oxazole-2-car boxamide], the IC50 in series [1] worked out at 2.21 nM. Besides, in series [2], the EC50 turned out to be 0.6 nM. Moreover, in series [3] (Brain), the AUC(0-t) was 8130 ng·h/mL, the Tmax was 1 h and the Cmax is 1760 ng/mL. Moreover, in series [3] (Plasma), the AUC(0-t) was 1840 ng·h/mL, the AUC(0-inf) came to 1970 ng·h/mL, the MRT was determined as 3.1 h and the half-life was 1.9 h. For the same compound, in series [3] (Plasma), the Tmax is 0.5 h and the Cmax amounted to 673 ng/mL.

(Values after patent publication EP4332093A1, “SALT CONTAINING PIPERAZINE POLYCYCLIC DERIVATIVE, CRYSTAL FORM THEREOF, PREPARATION METHOD THEREFOR, AND USE THEREOF” (Shanghai Hansoh Biomedical Co., Ltd., priority 2021, dated 2022).)
